# Where two headings read alike, the source gives them in different places.
# Test: APP processing: AlphaLisa assay of secreted Aβ40 and Aβ42 from SP4CT cells
# Assay type: cell-based
# Conditions: Homo sapiens, SH-SY5Y cells expressing amyloid β protein (SP4CT cells)
# Method: APP Processing (Assay Quantitates Secreted Aβ Analytes from Cell Lines):
# The effect of compounds on the abundance of Aβ40 and Aβ42 peptides generated from SH-SY5Y cells expressing amyloid β protein (SP4CT cells) are determined by an AlphaLisa™ assay. Analogous to an ELISA assay, generation of […] AlphaLisa™ assay requires “donor” and “acceptor” beads to be brought in close proximity by specific antibody recognition of either Aβ40 or Aβ42 peptides. The assay is accomplished by removing media from compound-treated SP4CT cells to two different microplates, followed by the addition of donor beads conjugated with streptavidin binding a biotinylated anti-amyloid β monocolonal antibody (clone 4G8). Acceptor beads directly conjugated with anti-Aβ40 monoclonal antibody (G210) are added to one microplate and anti-Aβ42 monoclonal antibody (12F4) acceptor beads were added to the other. Abundance of Aβ40 and Aβ42 is directly proportional to the luminescent signal generated following excitation of donor beads by laser light.
# [1] = read-out: IC50, inhibition of production of Aβ40 peptide
# [2] = read-out: IC50, inhibition of production of Aβ42 peptide
SMILES,IC50 [1],IC50 [2]
"CCn1nc(-c2cccc(C(C)(C)NS(=O)(=O)CC(F)(F)F)c2)cc1Oc1ccc(C(F)(F)F)cc1 [Example 1, N-[1-(3-{1-ethyl-5-[4-(trifluoromethyl)phenoxy]-1H-pyrazol-3-yl}phenyl)-1-methylethyl]-2,2,2-trifluoroethanesulfonamide]",< 0.2 µM,< 0.2 µM
"O=S(=O)(CC(F)(F)F)NC1(c2cccc(-c3cc(Oc4ccc(C(F)(F)F)cc4)n(CC4CCOCC4)n3)c2)COC1 [Example 139, N-(3-{3-[5-(4-trifluoromethylphenoxy)-1-(tetrahydro-2H-pyran-4-ylmethyl)-1H-pyrazol-3-yl]phenyl}oxetan-3-yl)-2,2,2-trifluoroethanesulfonamide]",< 0.2 µM,< 0.2 µM
"CCn1nc(-c2cccc(C(C)(C)NS(=O)(=O)CC(F)(F)F)c2)cc1Oc1ccc(CN2CCOCC2)cc1 [Example 78, N-[1-(3-{1-ethyl-5-[4-(morpholin-4-ylmethyl)phenoxy]-1H-pyrazol-3-yl}phenyl)-1-methylethyl]-2,2,2-trifluoroethanesulfonamide]",< 0.2 µM,< 0.2 µM
"CCn1nc(-c2cncc(C3(NS(=O)(=O)CC(F)(F)F)COC3)c2)cc1Oc1ccc(C(F)(F)F)cc1 [Example 126, N-[3-(5-{1-ethyl-5-[4-(trifluoromethyl)phenoxy]-1H-pyrazol-3-yl}pyridine-3-yl)oxetan-3-yl]-2,2,2-trifluoroethanesulfonamide]",< 0.2 µM,< 0.2 µM
"CCn1nc(-c2cccc(C(C)(C)NS(=O)(=O)NCC(F)(F)F)c2)cc1Oc1ccc(C(F)(F)F)cc1 [Example 4, N-[1-(3-{1-ethyl-5-[4-(trifluoromethyl)phenoxy]-1H-pyrazol-3-yl}phenyl)-1-methylethyl]-N′-(2,2,2-trifluoroethyl)sulfamide]",< 0.2 µM,< 0.2 µM
"CCn1nc(-c2cccc(C3(NS(=O)(=O)CC4CCC4)CC3)c2)cc1Oc1ccc(C(F)(F)F)cn1 [Example 42, 1-cyclobutyl-N-{1-[3-(1-ethyl-5-{[5-(trifluoromethyl)pyridin-2-yl]oxy}-1H-pyrazol-3-yl)phenyl]cyclopropyl} methanesulfonamide]",< 0.2 µM,< 0.2 µM
"CCn1nc(-c2cccc(C3(NS(=O)(=O)NCC(F)(F)F)COC3)c2)cc1Oc1ccc(C#N)cc1 [Example 129, N-(3-{3-[5-(4-cyanophenoxy)-1-ethyl-1H-pyrazol-3-yl]phenyl}oxetane-3-yl)-N′-(2,2,2-trifluoroethyl)sulfamide]",< 0.2 µM,< 0.2 µM
"CCn1nc(Oc2ccc(C(F)(F)F)cc2)cc1-c1cccc(C(C)(C)NS(=O)(=O)N2CCCCC2)c1 [Example 27, N-[1-(3-{1-ethyl-3-[4-(trifluoromethyl)phenoxy]-1H-pyrazol-5-yl}phenyl)-1 methylethyl]piperidine-1-sulfonamide]",< 0.2 µM,< 0.2 µM
"CCn1nc(-c2cccc(C(C)(C)NS(=O)(=O)CC(F)(F)F)c2)cc1Oc1ccc(CNCc2ccccn2)cc1 [Example 77, N-(1-{3-[1-ethyl-5-(4-{[(pyridin-2-ylmethyl)amino]methyl}phenoxy)-1H-pyrazol-3-yl]phenyl}-1-methylethyl)-2,2,2-trifluoroethanesulfonamide]",< 0.2 µM,< 0.2 µM
"CCn1nc(-c2cccc(C(C)(C)NS(=O)(=O)CC(F)(F)F)c2)c(I)c1Oc1ccc(C(F)(F)F)cc1 [Example 116, N-[2-(3-{1-ethyl-4-iodo-5-[4-(trifluoromethyl)phenoxy]-1H-pyrazol-3-yl}phenyl)propan-2-yl]-2,2,2-trifluoroethanesulfonamide]",< 0.2 µM,< 0.2 µM
"CCn1nc(-c2cccc(C3(NS(=O)(=O)NC)CC3)c2)cc1Oc1ccc(C(F)(F)F)cc1 [Example 48, N-[1-(3-{1-ethyl-5-[4-(trifluoromethyl)phenoxy]-1H-pyrazol-3-yl}phenyl)cyclopropyl]-N′-methylsulfamide]",< 0.2 µM,< 0.2 µM
"CCn1nc(-c2cccc(C3(NS(=O)(=O)CC(F)(F)F)CC3)c2)cc1Oc1ccc(C(F)(F)F)nc1 [Example 40, N-{1-[3-(1-ethyl-5-{[6-(trifluoromethyl)pyridin-3-yl]oxy}-1H-pyrazol-3-yl)phenyl]cyclopropyl}-2,2,2-trifluoroethanesulfonamide]",< 0.2 µM,< 0.2 µM
"CCn1nc(-c2cccc(C3(NS(=O)(=O)CC(F)(F)F)CC3)c2)cc1Oc1ncc(C(F)(F)F)cc1Cl [Example 39, N-{1-[3-(5-{[3-chloro-5-(trifluoromethyl)pyridin-2-yl]oxy}-1-ethyl-1H-pyrazol-3-yl)phenyl]cyclopropyl}-2,2,2-trifluoroethanesulfonamide]",< 0.2 µM,< 0.2 µM
"CCn1nc(-c2cccc(C(C)(C)NS(=O)(=O)CC(F)(F)F)c2)c(C=O)c1Oc1ccc(C(F)(F)F)cc1 [Example 118, N-[2-(3-{1-ethyl-4-formyl-5-[4-(trifluoromethyl)phenoxy]-1H-pyrazol-3-yl}phenyl)propan-2-yl]-2,2,2-trifluoroethanesulfonamide]",< 0.2 µM,< 0.2 µM
"CCn1nc(-c2cccc(C(C)(C)NS(=O)(=O)CC(F)(F)F)c2)cc1Oc1ccc(C(C)C)cc1 [Example 58, N-(1-{3-[1-ethyl-5-(4-isopropylphenoxy)-1H-pyrazol-3-yl]phenyl}-1-methylethyl)-2,2,2-trifluoroethanesulfonamide]",< 0.2 µM,< 0.2 µM
"CCn1nc(-c2cccc(C(C)(C)NS(=O)(=O)CC(F)(F)F)c2)cc1Oc1ccc(CNC2CCCOC2)cc1 (stereo not shown) [Example 92, N-{1-[3-(1-ethyl-5-{4-[(tetrahydro-2H-pyran-3-ylamino)methyl]phenoxy}-1H-pyrazol-3-yl)phenyl]-1-methylethyl}-2,2,2-trifluoroethanesulfonamide]",< 0.2 µM,< 0.2 µM
"CCn1nc(-c2cccc(C3(NS(=O)(=O)CC(F)(F)F)COC3)c2)cc1Oc1ccc(C(F)(F)F)cc1 [Example 95, N-[3-(3-{1-ethyl-5-[4-(trifluoromethyl)phenoxy]-1H-pyrazol-3-yl}phenyl)oxetan-3-yl]-2,2,2-trifluoroethanesulfonamide]",< 0.2 µM,< 0.2 µM
"CCn1nc(-c2cccc(C(C)(C)NS(=O)(=O)CC(F)(F)F)c2)cc1Oc1ccc(C(F)(F)F)cc1F [Example 5, N-[1-(3-{1-ethyl-5-[2-fluoro-4-(trifluoromethyl)phenoxy]-1H-pyrazol-3-yl}phenyl)-1-methylethyl]-2,2,2-trifluoroethanesulfonamide]",< 0.2 µM,< 0.2 µM
"CCn1nc(-c2cccc(C3(NS(=O)(=O)NC4CC(F)(F)C4)COC3)c2)cc1Oc1ccc(C#N)cc1 [Example 130, N-(3-{3-[5-(4-cyanophenoxy)-1-ethyl-1H-pyrazol-3-yl]phenyl}oxetane-3-yl)-N′-(3,3-difluorocyclobutyl)sulfamide]",< 0.2 µM,< 0.2 µM
"CCn1nc(-c2cccc(C(C)(C)NS(=O)(=O)CC(F)(F)F)c2)cc1Oc1ccc(CNCc2cccs2)cc1 [Example 88, N-(1-{3-[1-ethyl-5-(4-{[(2-thienylmethyl)amino]methyl}phenoxy)-1H-pyrazol-3-yl]phenyl}-1-methylethyl)-2,2,2-trifluoroethanesulfonamide]",< 0.2 µM,< 0.2 µM
"Cn1nc(-c2cccc(C3(NS(=O)(=O)CC(F)(F)F)CC3)c2)cc1Oc1ccc(C(F)(F)F)cc1 [Example 106, 2,2,2-trifluoro-N-[1-(3-{1-methyl-5-[4-(trifluoromethyl)phenoxy]-1H-pyrazol-3-yl}phenyl)cyclopropyl]ethanesulfonamide]",< 0.2 µM,< 0.2 µM
"CCn1nc(-c2cccc(C(C)(C)NS(=O)(=O)CC(F)(F)F)c2)cc1Oc1ccc(CNc2nccs2)cc1 [Example 86, N-{1-[3-(1-ethyl-5-{4-[(1,3-thiazol-2-ylamino)methyl]phenoxy}-1H-pyrazol-3-yl)phenyl]-1-methylethyl}-2,2,2-trifluoroethanesulfonamide]",< 0.2 µM,< 0.2 µM
"CCn1nc(-c2cccc(C3(NS(=O)(=O)CC)CC3)c2)cc1Oc1ccc(C(F)(F)F)cc1 [Example 38, N-[1-(3-{1-ethyl-5-[4-(trifluoromethyl)phenoxy]-1H-pyrazol-3-yl}phenyl)cyclopropyl] ethanesulfonamide]",< 0.2 µM,< 0.2 µM
"CCn1nc(-c2cccc(C(C)(C)NS(=O)(=O)CC(F)(F)F)c2)cc1Oc1ccc(C=O)cc1 [Example 61, N-(1-{3-[1-ethyl-5-(4-formylphenoxy)-1H-pyrazol-3-yl]phenyl}-1-methylethyl)-2,2,2-trifluoroethanesulfonamide]",< 0.2 µM,< 0.2 µM
"CCn1nc(-c2cccc(C(C)(C)NS(=O)(=O)CC(F)(F)F)c2)cc1Oc1ccc(C(C)(C)O)cc1 [Example 70, N-[1-(3-{1-ethyl-5-[4-(1-hydroxy-1-methylethyl)phenoxy]-1H-pyrazol-3-yl}phenyl)-1-methylethyl]-2,2,2-trifluoroethanesulfonamide]",< 0.2 µM,< 0.2 µM
"CCn1nc(Oc2ccc(C(F)(F)F)cc2)cc1-c1ccc2c(c1)CC(NS(=O)(=O)NCC(C)C)C2 (stereo not shown) [Example 124, N-(5-{1-ethyl-3-[4-(trifluoromethyl)phenoxy]-1H-pyrazol-5-yl}-2,3-dihydro-1H-inden-2-yl)-N′-isobutylsulfamide]",< 0.2 µM,< 0.2 µM

# — patent publication US8871796B2, “Diaryl ether derivatives as notch sparing gamma secretase inhibitors” (Merck Sharp & Dohme Corp., priority 2009, dated 2014)
